This is an account of results in patent publication US7998970B2, “Use of finasteride, dutasteride and related compounds for the prevention or treatment of neurologically-associated disorders” (ProteoSys AG, priority 2004, dated 2011).

SMILES strings stand for the structures. Where a name gives a salt, the structure may show the parent alone.

In experiment [1] the test system is neurons derived from D3 embryonic stem (ES) cells. The experiment can be described thus: β-amyloid-induced neuronal death (10 μM Aβ1-40), rescue in cell culture model. Type of experiment: cell-based. As for the experimental part:
(§1) For all experiments, D3 embryonic stem (ES) cells derived from 129/sv mice [Okabe et al., 1996] were cultivated for 12 days, with passages on days 2, 4, 7 and 9 as described previously [Sommer et al., 2004]. Insult conditions: Cells (24-well plates) were pre-incubated with or without 20 nM EPO (neuroprotective agent, positive control) in fresh medium for 24 hours at 37° C. Cells were rinsed once with low K^+ solution (140 mM NaCl, 4.7 mM KCl, 1.2 mM KH2PO4, 2.5 mM CaCl2, 1.2 mM MgSO4, 11 mM glucose, 15 mM Hepes-NaOH, pH 7.35). Cells (either with or without EPO pre-incubation) were incubated for up to 45 min (37° C.) with either low K^+ solution or with glucose-free low K^+ solution supplemented with 1 mM KCN chemical ischemia solution [Kume et al., 2002, Schrattenholz et al., 2005]. This insult relates to ischemic conditions in stroke. In addition similar cellular insults were established using glutamatergic agonists to induce excitotoxicity (Sommer et al., 2004) and respective neuroprotection related to stroke and epilepsy; and β-amyloid induced toxicity (incubation of neurons with 10 μM β-amyloid1-40 for 10 min, resulting in Ca-influx and neuronal death) and respective rescue related to Alzheimer's disease. Vitality control to assess numbers of surviving neurons was performed in all of these cases by a brief stimulation with a low dose of glutamate (10 μM). Afterwards, cells were washed three times with ice cold phosphate buffered saline (PBS), and then proteins were harvested. Suspended cells were pelleted at 500×G, and lysed into 9M urea 4% CHAPS. The cell lysate was desalted with a NAP-10 column (Amersham Biosciences), preequilibrated with the same buffer, and protein content was determined.
(§2) Functional tests by calcium imaging were performed essentially as described [Sommer et al., 2004]. Briefly, cells were loaded with 2 μM of fura-2 AM in DMEM for 45 min at 37° C. in the dark. Measurements of relative changes in [Ca^2+] were made on an inverted epifluorescence microscope (Olympus IX70 S1F2) with a Polychrom IV Monochromator (Xe-lamp, USHIO). Excitation wavelengths (λ1, λ2) and the emission wavelength were 340, 380 and 510 nm, respectively. Acquisition and analysis of data after appropriate stimulation were performed by using MetaFluor software (Universal Imaging Corporation). Image resolution was 168×129 pixels (binning 8×8, pixel size 6.8×6.8 μm). Only cells identified as neurons by morphological criteria and occasional immunostaining (not shown) and those whose calcium levels returned to the resting state after the first stimulation were taken into account. Controls included nominal zero calcium (negative) and 5 μM ionomycin (positive), 10 μM glutamate (positive) and depolarisation (55 mM K+) (positive). […]

The target in experiment [2] is T1, Kv1.5+Kvβ2.1 (Homo sapiens, UniProt Q13303).
T1 construct: expressed in transfected cells; host or cells: Xenopus oocytes
The experiment can be described thus: K+ channel electrophysiology, inside-out patches of transfected Xenopus oocytes. The format is cell-based. Conditions: 1 μM Finasteride; Xenopus oocytes with Kv1.5 and Kvβ2.1, inside-out patches, FIG. 5. As for the experimental part: Xenopus oocytes were transfected with various subunit combinations of potassium channels, like Kv1.5+Kvβ2.1. Subsequently activation curves using inside-out patches (external: 2 mM K^+, internal: 96 mM K^+) were measured, they represent IV-curves using standard internal buffer solution (HK+), which were recorded in the presence and absence of 1 μM Finasteride. Corresponding plots of G/Gmax versus the membrane potential were used to evaluate related effects.

Experiment [3] relates to neurons derived from D3 embryonic stem (ES) cells. The experiment can be described thus: Excitotoxic paradigm (100 μM NMDA), neuroprotection in cell culture model. Type of experiment: cell-based. As for the experimental part: as §1, §2
Experiment [4] deals with mitochondrial permeability transition pore (MPTP). The experiment can be described thus: Functional test of the MPTP by Rhodamine-123 assay. The format is cell-based, mouse. The conditions noted are these: for inhibition of release of Rhodamine-123 from mitochondria after opening of the MPTP: 0.5, 1, 10, 20 μM, FIG. 6. On the procedure:
Ant1 is one of the essential components of the MPTP, and thus was tested functionally by a fluorescent assay described by Metzger et al. (Metzger et al. Optical assessment of motoneuron function in a “twenty-four-hour” acute spinal cord slice model from fetal rats. Journal of Neuroscience Methods 141, 2005, 309320). Briefly, cells were incubated with Rhodamine-123 ([…]) at 37° C. for 20 min. Rhodamine-123 was dissolved at 5 mg/ml in ethanol. For measurements of the membrane potential ψ, cells loaded with Rhodamine-123 were excited at 480 nm and emission was monitored at 565 nm. The lipophilic cation Rhodamine-123 accumulates in mitochondria where its fluorescence intensity is quenched at high concentrations (Chen, 1988; Scaduto and Grotyohann, 1999). A depolarizing change of ψ is indicated by an increase in the intensity of fluorescence in response to dequenching of the dye after release from mitochondria (Emaus et al., 1986; Duchen, 1992, 2000). Thus we refer to the relative change in ψ as the percentage change in Rhodamine-123 fluorescence (Schuchmann et al., 2000).

Experiment [5] concerns G361 cells. The experiment can be described thus: Autophagy-related assay employing WIPI-staining. The format is cell-based, human. Conditions: 0.25, 0.5, 1.0 or 2.0 μM tested; FIG. 7.
Procedure: The presence of autophagy is quantified by a polyclonal hWIPI-1 antiserum, which was generated by immunizing rabbits (Charles River) with two synthetic peptides representing C-terminal regions in hWIPI-1 (363nkendlrpslp373, 407lrgevipehefatgpv422) and used at a dilution of 1:5000 in ECLWestern blotting detections (Amersham), and at 1:250 for indirect immunofluorescent stainings.
For these stainings, cells were fixed in 3.7% paraformaldehyde (15 min, RT) and analysed by confocal microscopy (see below). To visualize endogenous hWIPI-1 in G361 cells consecutive incubations were conducted using C-terminal hWIPI-1 antiserum at 1:250 (30 min, RT) and Alexa 546 or Alexa 488 labelled goat anti-rabbit IgG (Molecular Probes) at 1:500 (30 min, RT) in PBS/0.1% Tween (blocking/permeabilization: PBS/0.1% Tween/1% BSA, 30 min RT; washing: PBS/0.1% Tween). For nuclear staining, TO-PRO-3 (Molecular Probes) was used at 1:1000. Finally, cells were mounted in Vectashield Mounting Medium (Vector Laboratories) and kept in the dark (41C). Confocal laser scanning microscopy was conducted using a LSM510 microscope (Zeiss) and a 63— 1.4 DIC Plan-Apochromat oil-immersion objective. GFP and Alexa 488 were excited at 488 nm with the internal argon-ion laser. Alexa 546 and TO-PRO-3, respectively, were excited at 543 and 633 nm with helium-neon lasers. […]
In experiment [6] the test system is neurons derived from D3 embryonic stem (ES) cells. The experiment can be described thus: Chemical ischemia-induced neuronal death and neuroprotection, cell culture model. The conditions noted are these: for EC50: Mus musculus, Neuron, read-out: EC50 of neuroprotective effect, chemical ischemia; for neuroprotective effect compared between compounds: each 1 μM, FIG. 3. The format is cell-based, mouse. On the procedure:
as §1
Functional tests by calcium imaging were performed essentially as described [Sommer et al., 2004]. Briefly, cells were loaded with 2 μM of fura-2 AM in DMEM for 45 min at 37° C. in the dark. Measurements of relative changes in [Ca^2+] were made on an inverted epifluorescence microscope (Olympus IX70 S1F2) with a Polychrom IV Monochromator (Xe-lamp, USHIO). Excitation wavelengths (λ1, λ2) and the emission wavelength were 340, 380 and 510 nm, respectively. Acquisition and analysis of data after appropriate stimulation were performed by using MetaFluor software (Universal Imaging Corporation). Image resolution was 168×129 pixels (binning 8×8, pixel size 6.8×6.8 μm). Only cells identified as neurons by morphological criteria and occasional immunostaining (not shown) and those whose calcium levels returned to the resting state after the first stimulation were taken into account. Controls included nominal zero calcium (negative) and 5 μM ionomycin (positive), 10 μM glutamate (positive) and depolarisation (55 mM K+) (positive). Pharmacological agents were applied by a multi-valve, single-output focal drug application device (ALA Scientific) with the perfusion system DAD-12. […] During each stimulation event 20 image pairs were acquired.

Experiment [7] has as its system β-amyloid plaques. The experiment can be described thus: In vivo assay of β-amyloid plaque formation in a mouse model of Alzheimer's disease (APPPS mice). On the procedure:
A quite aggressive model for Alzheimer's disease is a double transgenic mouse line expressing mutated human amyloid precursor protein (APP) and presinilin-1 (PS). Between months 4 and 5 a maximal additional increase of the plaque load of 35-40% can be expected (exponential fit, FIG. 9).
Dutasteride was administered orally every day after animals became 4 months old, for 30 days at a maximum concentration of 2 mg/day.
Technically, images were recorded from whole brain sections (Olympus Fluorescence microscope AX70, Digital camera Casio QV4000; resolution 2240×1680 Pixel, with constant overall intensity in all images) A software-assisted procedure was then used to quantify overall areas of NT12 stain (anti-β-amyloid stain) (plaque area), and NT12 stain volumes in these areas by defining thresholds and relating them to overall proportions of respective slices (plaque volume).

Setting [8] is: Mus musculus, Neuron; read-out: EC50 of neuroprotective effect, β-amyloid toxicity (10 μM Aβ 1-40).
The mark [9] stands for this setting: Mus musculus, Neuron; read-out: EC50 of neuroprotective effect, excitotoxic paradigm (100 μM NMDA).
Where [10] appears, read: oral, 30 days, months 4 to 5, plaque area or plaque volume, order not stated.

T1 sequence (Q13303 whole entry): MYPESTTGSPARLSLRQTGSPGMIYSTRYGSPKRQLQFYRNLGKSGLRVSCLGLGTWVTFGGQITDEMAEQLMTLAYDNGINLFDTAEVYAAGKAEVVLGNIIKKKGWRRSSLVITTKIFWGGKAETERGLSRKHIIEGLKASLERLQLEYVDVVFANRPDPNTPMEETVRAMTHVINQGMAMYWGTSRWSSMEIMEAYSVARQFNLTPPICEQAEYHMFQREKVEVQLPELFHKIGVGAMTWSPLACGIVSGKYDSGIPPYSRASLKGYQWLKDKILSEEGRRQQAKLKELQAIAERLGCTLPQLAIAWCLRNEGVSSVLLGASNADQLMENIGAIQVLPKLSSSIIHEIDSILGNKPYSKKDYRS
T1 sequence (P22460 whole entry partner): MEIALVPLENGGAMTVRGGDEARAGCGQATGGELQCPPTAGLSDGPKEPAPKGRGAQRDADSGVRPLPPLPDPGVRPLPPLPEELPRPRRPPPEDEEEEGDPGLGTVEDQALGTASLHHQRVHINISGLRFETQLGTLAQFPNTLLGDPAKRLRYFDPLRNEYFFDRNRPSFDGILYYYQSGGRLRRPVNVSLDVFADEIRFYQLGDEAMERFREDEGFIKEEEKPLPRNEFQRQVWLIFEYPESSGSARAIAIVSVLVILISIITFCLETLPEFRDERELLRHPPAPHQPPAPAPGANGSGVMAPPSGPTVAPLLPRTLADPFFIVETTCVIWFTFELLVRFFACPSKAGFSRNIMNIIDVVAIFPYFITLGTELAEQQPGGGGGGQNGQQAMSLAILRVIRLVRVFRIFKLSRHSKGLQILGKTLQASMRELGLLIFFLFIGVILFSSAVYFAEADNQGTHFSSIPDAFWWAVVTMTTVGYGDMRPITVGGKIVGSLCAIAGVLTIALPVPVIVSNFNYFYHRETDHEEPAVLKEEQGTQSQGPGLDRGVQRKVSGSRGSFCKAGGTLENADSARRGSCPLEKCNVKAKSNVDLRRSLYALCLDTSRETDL

Take `CC(C)(C)NC(=O)[C@H]1CC[C@H]2[C@@H]3CC[C@H]4NC(=O)C=C[C@]4(C)[C@H]3CC[C@]12C` [Finasteride, 17β-(N-tert-butylcarbamoyl)-4-aza-5α-androst-1-en-3-one]: the figures for the half-maximal effective concentration (EC50) in experiment [1] (setting [8]), in experiment [3] (setting [9]) and in experiment [6] were 100 nM, 2 µM and 300 nM, respectively. Also, in experiment [2], the “shift of the IV-curve (G/Gmax versus membrane potential)” value was “small shift of the IV-curve towards more negative potential”. The “inhibition of release of Rhodamine-123 from mitochondria after opening of the MPTP” value in experiment [4] is “dose-dependent”. Also, the “enhancement of autophagy in surviving G361 cells” value in experiment [5] was “dose-dependent effect”. Moreover, in experiment [6] (100 nM-1 μM present during the ischemic insult, FIG. 2), the “protection against neuronal death induced by chemical ischemia” value was “substantial protection”. Also, in experiment [6] (1 μM, control cells 4.8±3.4%), the “surviving rate of neurons after chemical ischemia” value amounted to 72.1±4.4%. For the same compound, the “concentration at which the neuroprotective effect peaks” value in experiment [6] (dose response, FIG. 2) was “about 1 μM”. In experiment [6], the “neuroprotective effect compared between compounds” value is “comparable and strongest”.
As to `CC12CCC3C(CC[C@H]4NC(=O)CCC34C)C1CCC2C(=O)NCCN` (stereo partly drawn) [AEOAA, 4α,6α-dimethyl-2-oxo-hexadecahydro-indeno[5,4-f]quinoline-7-carboxylic-(2-amino-ethyl)-amide hydrochloride], the EC50 in experiment [1] (setting [8]) was 4000 nM; in experiment [3] (setting [9]), 5 µM; in experiment [6], 5000 nM. Also, the “neuroprotective effect compared between compounds” value in experiment [6] is on record as “considerably less active”.
Take `CC12CCC3C(CC[C@H]4NC(=O)CCC34C)C1CCC2C(=O)O` (stereo partly drawn) [COAAA, 4α,6α-di methyl-2-oxo-hexadecahydro-indeno[5,4-f]quinoline-7-carboxylic-acid]: the figures for the EC50 in experiment [1] (setting [8]), in experiment [3] (setting [9]) and in experiment [6] were 2000 nM, 5 µM and 1000 nM, respectively. The “neuroprotective effect compared between compounds” value in experiment [6] is listed as “nearly as efficacious”.
Turning to `C[C@]12C=CC(=O)N[C@@H]1CC[C@@H]1[C@@H]2CC[C@]2(C)[C@@H](C(=O)Nc3cc(C(F)(F)F)ccc3C(F)(F)F)CC[C@@H]12` [Dutasteride, 5α,17β-N-[2,5-bis(trifluoromethyl)phenyl]-3-oxo-4-azaandrost-1-ene-17-carboxamide], the concentration giving a half-maximal response (EC50) in experiment [1] (Mus musculus, Neuron, read-out: EC50 of neuroprotective effect, β-amyloid toxicity (10 μM Aβ 1-40)) was determined as 100 nM. The concentration giving a half-maximal response (EC50) in experiment [3] (Mus musculus, Neuron, read-out: EC50 of neuroprotective effect, excitotoxic paradigm (100 μM NMDA)) came out at 1.5 µM. Further, the “inhibition of release of Rhodamine-123 from mitochondria after opening of the MPTP” value in experiment [4] was “dose-dependent”. The “inhibition of MPTP-formation and opening during ischemic conditions” value in experiment [4] (neural derivatives of embryonic stem cells) was “marked and significant inhibition”. In addition, in experiment [7] (setting [10]), the “overall reduction of plaque load versus non-treated controls, first value of 'respectively'” value was 12% and the “overall reduction of plaque load versus non-treated controls, second value of 'respectively'” value is reported as 13%. In addition, the “load of β-amyloid plaques (NT12 stain) in treated versus non-treated group” value in experiment [7] (oral, daily for 30 days from month 4, max 2 mg/day, cortical slices, FIG. 8) was “significantly lower”. Further, the “reduction of the plaque load relative to the increase expected between months 4 and 5” value in experiment [7] (related to expected increase of 35-40%) is listed as 30-32.5%. Besides, in experiment [5], the “enhancement of autophagy in surviving G361 cells” value is reported as “dose-dependent effect”. In experiment [6], the EC50 came out at 300 nM; the “neuroprotective effect compared between compounds” value was “comparable and strongest”.

As usually defined, the EC50 is the concentration at which the effect is half-maximal.
